The target of one assay is T1, ATP-diphosphohydrolase 1 (Schistosoma mansoni, UniProt Q7YTA4).
T1 sequence (Q7YTA4 whole entry): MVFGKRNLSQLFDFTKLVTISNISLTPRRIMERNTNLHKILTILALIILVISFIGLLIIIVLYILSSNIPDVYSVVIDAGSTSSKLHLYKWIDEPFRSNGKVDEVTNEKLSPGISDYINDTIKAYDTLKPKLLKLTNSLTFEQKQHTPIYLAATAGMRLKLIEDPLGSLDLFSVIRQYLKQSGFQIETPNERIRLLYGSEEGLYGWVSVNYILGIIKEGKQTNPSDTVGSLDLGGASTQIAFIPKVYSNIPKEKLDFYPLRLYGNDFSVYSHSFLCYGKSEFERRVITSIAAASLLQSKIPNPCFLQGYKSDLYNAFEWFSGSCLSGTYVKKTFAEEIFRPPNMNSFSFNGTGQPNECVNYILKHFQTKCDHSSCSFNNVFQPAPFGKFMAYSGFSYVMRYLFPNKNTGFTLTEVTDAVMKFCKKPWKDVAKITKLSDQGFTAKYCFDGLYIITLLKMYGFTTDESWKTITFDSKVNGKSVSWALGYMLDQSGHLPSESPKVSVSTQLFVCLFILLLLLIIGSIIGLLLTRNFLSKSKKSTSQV
Description: Inhibition of Schistosoma mansoni ATPDase1 incubated for 30 mins.

Assay [1] relates to Schistosoma mansoni. Put plainly: Antischistosomal activity against Schistosoma mansoni BH infected in Balb/c mouse assessed as reduction in worm burden at 400 mg/kg, po measurement after 2 weeks. It counts as functional. Further details: scale not given: the % may be the effect or the level left.
The test system of assay [2] is Schistosoma mansoni. Description: Antischistosomal activity against Schistosoma mansoni LE infected in BALB/c mouse assessed as reduction in egg burden at 50 mg/kg, ip administered for 5 consecutive days starting from day 23 post infection by microscopic method relative to control. It counts as functional. Further details: scale not given: the % may be the effect or the level left.

The test system of assay [3] is Schistosoma mansoni. Put plainly: Antischistosomal activity against Schistosoma mansoni LE infected in BALB/c mouse assessed as reduction in egg burden at 100 mg/kg, ip administered for 5 consecutive days starting from day 23 post infection by microscopic method relative to control. The class given is functional. Details: scale not given: the % may be the effect or the level left.

The subject of assay [4] is Schistosoma mansoni. Description: Antischistosomal activity against Schistosoma mansoni LE assessed as reduction in egg development by measuring developed eggs at 100 uM measured after 5 days relative to control. The settings on record: time 5 day. It counts as functional. Details: scale not given: the % may be the effect or the level left.
For assay [5], the system named is Schistosoma mansoni. Put plainly: Antischistosomal activity against Schistosoma mansoni LE infected in BALB/c mouse assessed as reduction in worm burden at 50 mg/kg, ip administered for 5 consecutive days starting from day 1 post infection by microscopic method relative to control. It counts as functional. Further details: scale not given: the % may be the effect or the level left.

Assay [6] deals with Schistosoma mansoni. Description: Antischistosomal activity against Schistosoma mansoni LE infected in BALB/c mouse assessed as reduction in worm burden at 100 mg/kg, ip administered for 5 consecutive days starting from day 1 post infection by microscopic method relative to control. It counts as functional. Further details: scale not given: the % may be the effect or the level left.

Assay [7] concerns Schistosoma mansoni. Description: Antischistosomal activity against Schistosoma mansoni LE infected in BALB/c mouse assessed as reduction in egg burden at 10 mg/kg, ip administered for 5 consecutive days starting from day 37 post infection by microscopic method relative to control. The class given is functional. Details: scale not given: the % may be the effect or the level left.

For assay [8], the system named is Schistosoma mansoni. Put plainly: Antischistosomal activity against Schistosoma mansoni LE assessed as reduction in egg population at 100 uM measured after 72 hrs by inverted microscopy relative to control. Details: scale not given: the % may be the effect or the level left. It counts as functional.
The test system of assay [9] is Schistosoma mansoni. Put plainly: Antischistosomal activity against adult Schistosoma mansoni LE measured every 24 hrs for 72 hrs by inverted microscopy. It counts as functional.
Assay [10] concerns Schistosoma mansoni. Description: Antischistosomal activity against Schistosoma mansoni LE infected in BALB/c mouse assessed as reduction in worm burden at 10 mg/kg, ip administered for 5 consecutive days starting from day 37 by microscopic method relative to control. It counts as functional. Details: scale not given: the % may be the effect or the level left.
Assay [11] deals with Schistosoma mansoni. Description: Antischistosomal activity against Schistosoma mansoni LE infected in BALB/c mouse assessed as reduction in worm burden at 100 mg/kg, ip administered for 5 consecutive days starting from day 23 post infection by microscopic method relative to control. It counts as functional. Details: scale not given: the % may be the effect or the level left.

For assay [12], the system named is Schistosoma mansoni. Description: Antischistosomal activity against Schistosoma mansoni LE infected in BALB/c mouse assessed as reduction in worm burden at 10 mg/kg, ip administered for 5 consecutive days starting from day 23 by microscopic method relative to control. It counts as functional. Details: scale not given: the % may be the effect or the level left.

Assay [13] has as its system Schistosoma mansoni. Description: Antischistosomal activity against Schistosoma mansoni LE infected in BALB/c mouse assessed as reduction in worm burden at 10 mg/kg, ip administered for 5 consecutive days starting from day 1 post infection by microscopic method relative to control. The class given is functional. Further details: scale not given: the % may be the effect or the level left.

Assay [14] concerns Schistosoma mansoni. Put plainly: Antischistosomal activity against Schistosoma mansoni LE infected in BALB/c mouse assessed as reduction in worm burden at 50 mg/kg, ip administered for 5 consecutive days starting from day 23 post infection by microscopic method relative to control. The class given is functional. Details: scale not given: the % may be the effect or the level left.

Assay [15] deals with Schistosoma mansoni. Put plainly: Antischistosomal activity against Schistosoma mansoni LE infected in BALB/c mouse assessed as reduction in egg burden at 100 mg/kg, ip administered for 5 consecutive days starting from day 1 post infection by microscopic method relative to control. It counts as functional. Details: scale not given: the % may be the effect or the level left.

Assay [16] deals with Schistosoma mansoni. Put plainly: Antischistosomal activity against Schistosoma mansoni LE infected in BALB/c mouse assessed as reduction in egg burden at 10 mg/kg, ip administered for 5 consecutive days starting from day 23 post infection by microscopic method relative to control. It counts as functional. Details: scale not given: the % may be the effect or the level left.

For assay [17], the system named is Schistosoma mansoni. Description: Antischistosomal activity against Schistosoma mansoni LE infected in BALB/c mouse assessed as reduction in egg burden at 50 mg/kg, ip administered for 5 consecutive days starting from day 37 post infection by microscopic method relative to control. Further details: scale not given: the % may be the effect or the level left. The class given is functional.

The test system of assay [18] is Schistosoma mansoni. Description: Antischistosomal activity against Schistosoma mansoni LE infected in BALB/c mouse assessed as reduction in egg burden at 50 mg/kg, ip administered for 5 consecutive days starting from day 1 post infection by microscopic method relative to control. The class given is functional. Further details: scale not given: the % may be the effect or the level left.

The subject of assay [19] is Schistosoma mansoni. Description: Antischistosomal activity against juvenile Schistosoma mansoni LE measured every 24 hrs for 72 hrs by inverted microscopy. It counts as functional.
Assay [20] deals with Schistosoma mansoni. Description: Antischistosomal activity against Schistosoma mansoni LE schistosomula measured every 24 hrs for 72 hrs by inverted microscopy. The class given is functional.
Assay [21] deals with Schistosoma mansoni. Description: Antischistosomal activity against Schistosoma mansoni LE infected in BALB/c mouse assessed as reduction in worm burden at 100 mg/kg, ip administered for 5 consecutive days starting from day 37 post infection by microscopic method relative to control. Further details: scale not given: the % may be the effect or the level left. It counts as functional.

Assay [22] deals with Schistosoma mansoni. Description: Antischistosomal activity against Schistosoma mansoni LE infected in BALB/c mouse assessed as reduction in egg burden at 10 mg/kg, ip administered for 5 consecutive days starting from day 1 post infection by microscopic method relative to control. It counts as functional. Further details: scale not given: the % may be the effect or the level left.

For assay [23], the system named is Schistosoma mansoni. Put plainly: Antischistosomal activity against Schistosoma mansoni LE infected in BALB/c mouse assessed as reduction in worm burden at 50 mg/kg, ip administered for 5 consecutive days starting from day 37 post infection by microscopic method relative to control. Details: scale not given: the % may be the effect or the level left. The class given is functional.

In assay [24] the test system is Schistosoma mansoni. Put plainly: Antischistosomal activity against Schistosoma mansoni LE infected in BALB/c mouse assessed as reduction in egg burden at 100 mg/kg, ip administered for 5 consecutive days starting from day 37 post infection by microscopic method relative to control. It counts as functional. Further details: scale not given: the % may be the effect or the level left.

Assay [25] deals with Plasmodium falciparum. Put plainly: Antiplasmodial activity against Plasmodium falciparum 3D7 incubated for 72 hrs by SYBR Green1 by fluorometric assay. It counts as functional, organism-based. To be noted: 3D7, 72 h.
The test system of the next assay is Schistosoma japonicum. Description: Antischistosomal activity against Schistosoma japonicum assessed as worm mortality at 5 ug/ml incubated for 72 hrs by microscopic method relative to control. The class given is functional. The settings on record: dose 5 µg/ml.
In assay [26] the test system is Plasmodium falciparum. Description: Antiplasmodial activity against Plasmodium falciparum Dd2 incubated for 72 hrs by SYBR Green1 by fluorometric assay. The class given is functional, organism-based. To be noted: Dd2, 72 h.
The test system of assay [27] is Schistosoma mansoni. Description: Antischistosomal activity against Schistosoma mansoni LE assessed as worm vitality at 20 uM incubated for 24 hrs by microscopic method relative to control. It counts as functional.
In assay [28] the test system is Schistosoma mansoni. Description: Antischistosomal activity against Schistosoma mansoni LE assessed as worm mortality at 20 uM incubated for 72 hrs by microscopic method relative to control. The class given is functional.
Assay [29] has as its system Schistosoma mansoni. Put plainly: Antischistosomal activity against adult Schistosoma mansoni LE assessed as seperation of male and female worms at 10 uM measured after 24 hrs by inverted microscopy relative to control. The class given is functional.
The subject of assay [30] is Schistosoma mansoni. Description: Antischistosomal activity against adult Schistosoma mansoni LE assessed as reduction in motor activity at 50 uM measured after 24 hrs by inverted microscopy relative to control. The class given is functional. Details: scale not given: the % may be the effect or the level left.
For assay [31], the system named is Schistosoma mansoni. Description: Antischistosomal activity against adult Schistosoma mansoni LE assessed as reduction in motor activity at 10 uM measured after 24 hrs by inverted microscopy relative to control. It counts as functional. Further details: scale not given: the % may be the effect or the level left.
For assay [32], the system named is Schistosoma mansoni. Put plainly: Antischistosomal activity against Schistosoma mansoni at 50 uM measured after 96 hrs relative to control. It counts as functional.
The subject of assay [33] is Schistosoma mansoni. Description: Antischistosomal activity against Schistosoma mansoni at 50 uM measured after 120 hrs relative to control. The class given is functional.
For assay [34], the system named is Schistosoma mansoni. Description: Antischistosomal activity against female Schistosoma mansoni LE incubated for 24 hrs by MTT assay. It counts as functional. For orientation: Tetrazolium assays rely on reduction of a dye to a coloured formazan, in cell work by metabolically active cells.
The next assay deals with CHO-K1. Put plainly: Cytotoxicity against CHO-K1 cells incubated for 24 hrs by colorimetric assay. The class given is functional, cell-based. To be noted: Cricetulus griseus, CHO-K1, 24 h.
For assay [35], the system named is Schistosoma mansoni. Put plainly: Antischistosomal activity against male Schistosoma mansoni LE incubated for 24 hrs by MTT assay. The class given is functional.

SMILES strings stand for the structures.

By IC50 is commonly meant the concentration that gives 50% inhibition. The LC50 is the concentration lethal to half of the exposed cells or organisms.

As for `COc1ccc(/C=C/C(=O)c2ccccc2O)cc1`, the IC50 on ATP-diphosphohydrolase 1 was determined as 30.6 µM. For the same compound, in the assay on Schistosoma mansoni [1], the Activity is recorded as 32.8%.
As for `O=C1OC[C@@H](Cc2cc3c(cc2[N+](=O)[O-])OCO3)[C@@H]1Cc1cc2c(cc1[N+](=O)[O-])OCO2`, the Activity with Schistosoma mansoni [2] is 52%; in the assay with Schistosoma mansoni [3] it was 16%; in the assay on Schistosoma mansoni [4], below 10%; in the assay on Schistosoma mansoni [5], 36%; in the assay on Schistosoma mansoni [6], 39%; with Schistosoma mansoni [7], 40%. In addition, the Activity in the assay on Schistosoma mansoni [8] is recorded as above 83%; with Schistosoma mansoni [10], 33%; with Schistosoma mansoni [11], 39%; in the assay on Schistosoma mansoni [12], 33%; with Schistosoma mansoni [13], 33%; in the assay on Schistosoma mansoni [14] it was 36%. The Activity in the assay with Schistosoma mansoni [15] is reported as 16%; in the assay with Schistosoma mansoni [16], 40%; with Schistosoma mansoni [17] it was 52%; in the assay with Schistosoma mansoni [18] it was 52%; in the assay on Schistosoma mansoni [21] it was 39%; with Schistosoma mansoni [22] it was 40%. For the same compound, the Activity in the assay with Schistosoma mansoni [23] came to 36%; with Schistosoma mansoni [24] it was 16%. For the same compound, the LC50 came out at 102 µM in the assay with Schistosoma mansoni [9], 180 µM in the assay on Schistosoma mansoni [19] and 20.4 µM in the assay on Schistosoma mansoni [20].
With `CCCCNCC(O)Cn1c2ccc(Cl)cc2c2cc(Cl)ccc21` (stereo not drawn), the IC50 was found to be 0.274 µM in the assay on Plasmodium falciparum [25] and 0.047 µM with Plasmodium falciparum [26]. Further, the Activity in the assay with Schistosoma japonicum is on record as 100%.
Turning to `COc1cc(OC)c(/C=C2\NC(=O)N(Cc3c(F)cccc3Cl)C2=S)c(OC)c1`, the Activity in the assay on Schistosoma mansoni [27] and in the assay on Schistosoma mansoni [28] was 100% each time.
In the case of `COc1cc(C[C@@H]2C(=O)OC[C@H]2Cc2cc(OC)c3c(c2)OCO3)cc(OC)c1OC`, the values for the Activity with Schistosoma mansoni [29], with Schistosoma mansoni [30] and with Schistosoma mansoni [31] were above 85%, above 75% and 100%, respectively.
Regarding `CN(c1ccc(F)cc1)N(C)C1NC(=O)N(Cc2ccc(Cl)cc2)C1=S` (stereo not drawn), the Activity in the assay with Schistosoma mansoni [32] and in the assay with Schistosoma mansoni [33] was 100% in each case.
As for `C=CC(C)(C)c1cc(/C=C/C(=O)c2ccc(O)cc2)c(OC)cc1O` [LICOAGROCHACONE A], the figures for the LC50 in the assay with Schistosoma mansoni [34] and in the assay on Schistosoma mansoni [35] were 9.12 µM and 9.52 µM, respectively. The same compound showed an IC50 with CHO-K1 of 508 µM.
